Experiment [1] concerns the target T1, Estrogen Receptor (ERα) in MCF-7 human ductal carcinoma breast cell line (Homo sapiens, UniProt P03372).
T1 construct: endogenous in cells; host or cells: MCF-7
T1 sequence (P03372 1-595): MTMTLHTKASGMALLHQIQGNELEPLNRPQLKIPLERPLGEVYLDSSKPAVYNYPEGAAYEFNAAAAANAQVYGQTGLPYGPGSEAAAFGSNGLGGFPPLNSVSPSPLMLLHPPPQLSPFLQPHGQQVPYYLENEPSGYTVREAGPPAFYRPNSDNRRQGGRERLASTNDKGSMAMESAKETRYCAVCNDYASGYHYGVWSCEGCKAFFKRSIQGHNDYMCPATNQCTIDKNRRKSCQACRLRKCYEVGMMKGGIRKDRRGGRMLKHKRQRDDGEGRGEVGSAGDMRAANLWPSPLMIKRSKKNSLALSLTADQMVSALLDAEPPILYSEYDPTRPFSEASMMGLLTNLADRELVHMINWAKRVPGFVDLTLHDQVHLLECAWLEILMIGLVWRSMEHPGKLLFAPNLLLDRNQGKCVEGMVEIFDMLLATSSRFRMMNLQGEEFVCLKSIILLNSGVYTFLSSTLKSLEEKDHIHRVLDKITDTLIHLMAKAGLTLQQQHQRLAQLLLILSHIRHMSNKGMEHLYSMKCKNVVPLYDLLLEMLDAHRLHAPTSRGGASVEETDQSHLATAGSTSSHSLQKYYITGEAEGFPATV
The experiment is described as follows: MCF-7 ER degradation assay (cell based immuno-fluorescence). The note with it: MCF-7 cells, 18-22 hours incubation, 50% reduction of ERα expression; single experiment or average of two or more; read-out: MCF-7 ER degradation IC50. As for the experimental part:
MCF-7 ER Degradation Assay
The ability of compounds to down-regulate Estrogen Receptor (ER) numbers was assessed in a cell based immuno-fluorescence assay using the MCF-7 human ductal carcinoma breast cell line. MCF-7 cells were revived directly from a cryovial (approx 5×10^6 cells) in Assay Medium (phenol red free Dulbecco's Modified Eagle's medium (DMEM); Sigma D5921) containing 2 mM L-Glutamine and 5% (v/v) Charcoal/Dextran treated foetal calf serum. Cells were syringed once using a sterile 18 G×1.5 inch (1.2×40 mm) broad gauge needle and cell density was measured using a Coulter Counter (Beckman). Cells were further diluted in Assay Medium to a density of 3.75×10^4 cells per mL and 40 μL per well added to transparent bottomed, black, tissue culture-treated 384 well plates (Costar, No. 3712) using a Thermo Scientific Matrix WellMate or Thermo Multidrop. Following cell seeding, plates were incubated overnight at 37° C., 5% CO2 (Liconic carousel incubator). Test data was generated using the LabCyte Echo™ model 555 compound reformatter which is part of an automated workcell (Integrated Echo 2 workcell). Compound stock solutions (10 mM) of the test compounds were used to generate a 384 well compound dosing plate (Labcyte P-05525-CV1). 40 μL of each of the 10 mM compound stock solutions was dispensed into the first quadrant well and then 1:100 step-wise serial dilutions in DMSO were performed using a Hydra II (MATRIX UK) liquid handling unit to give 40 μL of diluted compound into quadrant wells 2 (0.1 mM), 3 (1 μM) and 4 (0.01 μM), respectively. 40 μL of DMSO added to wells in row P on the source plate allowed for DMSO normalisation across the dose range. To dose the control wells 40 μL of DMSO was added to row O1 and 40 μL of 100 μM fulvestrant in DMSO was added to row O3 on the compound source plate.
The Echo uses acoustic technology to perform direct microplate-to-microplate transfers of DMSO compound solutions to assay plates. The system can be programmed to transfer volumes as low as 2.5 nL in multiple increments between microplates and in so doing generates a serial dilution of compound in the assay plate which is then back-filled to normalise the DMSO concentration across the dilution range. Compounds were dispensed onto the cell plates with a compound source plate prepared as above producing a 12 point duplicate […] dose range with 3-fold dilutions and one final 10-fold dilution using the Integrated Echo 2 workcell. The maximum signal control wells were dosed with DMSO to give a final concentration of 0.3%, and the minimum signal control wells were dosed with fulvestrant to give a final concentration of 100 nM accordingly. Plates were further incubated for 18-22 hours at 37° C., 5% CO2 and then fixed by the addition of 20 μL of 11.1% (v/v) formaldehyde solution (in phosphate buffered saline (PBS)) giving a final formaldehyde concentration of 3.7% (v/v). Cells were fixed at room temperature for 20 mins before being washed two times with 250 μL PBS/Proclin (PBS with a Biocide preservative) using a BioTek platewasher, 40 μL of PBS/Proclin was then added to all wells and the plates stored at 4° C. The fixing method described above was carried out on the Integrated Echo 2 workcell. Immunostaining was performed using an automated AutoElisa workcell. The PBS/Proclin was aspirated from all wells and the cells permeabilised with 40 μL PBS containing 0.5% Tween™ 20 (v/v) for 1 hour at room temperature. The plates were washed three times in 250 μL of PBS/0.05% (v/v) Tween 20 with Proclin (PBST with a Biocide preservative) and then 20 μL of ERα (SP1) Rabbit monoclonal antibody (Thermofisher) 1:1000 in PBS/Tween™/3% (w/v) Bovine Serum Albumin was added. The plates were incubated overnight at 4° C. (Liconic carousel incubator) and then washed three times in 250 μL of PBS/0.05% (v/v) Tween™ 20 with Proclin (PBST). […]

The target of experiment [2] is T2, recombinant human Estrogen Receptor alpha ligand binding domain, residues 307-554 (ER alpha-LBD (GST)) (Homo sapiens, UniProt P03372).
T2 construct: made in house
T2 sequence (P03372 307-554): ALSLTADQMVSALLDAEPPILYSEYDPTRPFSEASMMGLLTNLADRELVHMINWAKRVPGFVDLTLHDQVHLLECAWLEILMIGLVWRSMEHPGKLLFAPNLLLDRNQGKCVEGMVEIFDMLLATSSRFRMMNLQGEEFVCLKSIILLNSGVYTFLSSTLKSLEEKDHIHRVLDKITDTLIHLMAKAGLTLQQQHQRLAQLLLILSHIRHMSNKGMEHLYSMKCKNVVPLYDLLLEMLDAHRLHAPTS
The experiment is described as follows: ERα binding assay (LanthaScreen TR-FRET competition). The note with it: TR-FRET competition with Fluormone ES2 tracer, 4 hours at room temperature; single experiment or average of two or more. The method, then: The ability of compounds to bind to isolated Estrogen Receptor Alpha Ligand binding domain (ER alpha-LBD (GST)) was assessed in competition assays using a LanthaScreen™ Time-Resolved Fluorescence Resonance Energy Transfer (TR-FRET) detection end-point. For the LanthaScreen TR-FRET endpoint, a suitable fluorophore (Fluormone ES2, ThermoFisher, Product code P2645) and recombinant human Estrogen Receptor alpha ligand binding domain, residues 307-554 (expressed and purified in-house) were used to measure compound binding. The assay principle is that ER alpha-LBD (GST) is added to a fluorescent ligand to form a receptor/fluorophore complex. A terbium-labelled anti-GST antibody (Product code PV3551) is used to indirectly label the receptor by binding to its GST tag, and competitive binding is detected by a test compound's ability to displace the fluorescent ligand, resulting in a loss of TR-FRET signal between the Tb-anti-GST antibody and the tracer. The assay was performed as follows with all reagent additions carried out using the Beckman Coulter BioRAPTR FRD microfluidic workstation: • 1. Acoustic dispense 120 nL of the test compound into a black low volume 384 well assay plates. • 2. Prepare 1×ER alpha-LBD/Tb-antiGST Ab in ES2 screening buffer and incubate for 15 minutes. • 3. Dispense 6 μL of the […] reagent into each well of the assay plate followed by 6 μL of Fluorophore reagent into each well of the assay plate • 4. Cover the assay plate to protect the reagents from light and evaporation, and incubate at room temperature for 4 hours. • 5. Excite at 337 nm and measure the fluorescent emission signal of each well at 490 nm and 520 nm using the BMG PheraSTAR.
Compounds were dosed directly from a compound source microplate containing serially diluted compound (4 wells containing 10 mM, […] and 10 nM final compound respectively) to an assay microplate using the Labcyte Echo 550. The Echo 550 is a liquid handler that uses acoustic technology to perform direct microplate-to-microplate transfers of DMSO compound solutions and the system can be programmed to transfer multiple small nL volumes of compound from the different source plate wells to give the desired serial dilution of compound in the assay which is then back-filled to normalise the DMSO concentration across the dilution range.
In total 120 nL of compound plus DMSO were added to each well and compounds were tested in a 12-point concentration response format over a final compound concentration range of 10, 2.917, 1.042, 0.2083, 0.1, 0.0292, 0.0104, 0.002083, 0.001, 0.0002917, 0.0001042, and 0.00001 μM respectively. TR-FRET dose response data obtained with each compound was exported into a suitable software package (such as Origin or Genedata) to perform curve fitting analysis. Competitive ER alpha binding was expressed as an IC50 value. This was determined by calculation of the concentration of compound that was required to give a 50% reduction in tracer compound binding to ER alpha-LBD.
(In general: Time-resolved FRET reads energy transfer from a long-lived donor to a nearby acceptor.)

A word on the IC50: it is the concentration that inhibits the measured activity by half.

Regarding `Cc1ncsc1-c1ccc(CNC(=O)[C@@H]2C[C@@H](O)CN2C(=O)[C@@H](NC(=O)CN2CCC3(CC2)CCN(C(=O)COc2cc(F)c([C@@H]4c5[nH]c6ccccc6c5C[C@@H](C)N4CC(C)(C)F)c(F)c2)CC3)C(C)(C)C)cc1` [Example 44, (2S,4R)-1-((S)-2-(2-(9-(2-(3,5-difluoro-4-((R,3R)-2-(2-fluoro-2-methylpropyl)-3-methyl-2,3,4,9-tetrahydro-1H-pyrido[3,4-b]indol-1-yl)phenoxy)acetyl)-3,9-diazaspiro[5.5]undecan-3-yl)acetamido)-3,3-dimethylbutanoyl)-4-hydroxy-N-(4-(4-methylthiazol-5-yl)benzyl)pyrrolidine-2-carboxamide], in experiment [1], the DC50 stood at 1.8 nM. Further, the IC50 in experiment [2] was 1.3 nM.

For the compound `Cc1ncsc1-c1ccc(CNC(=O)[C@@H]2C[C@@H](O)CN2C(=O)[C@@H](NC(=O)C(C)(C)OCCCCCCOc2cc(F)c([C@@H]3c4[nH]c5ccccc5c4C[C@@H](C)N3CC(C)(C)F)c(F)c2)C(C)(C)C)cc1` [Example 117, (2S,4R)-1-((S)-2-(2-((6-(3,5-Difluoro-4-((1R,3R)-2-(2-fluoro-2-methylpropyl)-3-methyl-2,3,4,9-tetrahydro-1H-pyrido[3,4-b]indol-1-yl)phenoxy)hexyl)oxy)-2-methylpropanamido)-3,3-dimethylbutanoyl)-4-hydroxy-N-(4-(4-methylthiazol-5-yl)benzyl)pyrrolidine-2-carboxamide], the DC50 in experiment [1] amounted to 22 nM. Also, the IC50 in experiment [2] was 0.8 nM.

With `Cc1ncsc1-c1ccc([C@H](CN(C)C)NC(=O)[C@@H]2C[C@@H](O)CN2C(=O)[C@@H](NC(=O)COCCOCCOCCOc2cc(F)c([C@@H]3c4[nH]c5ccccc5c4C[C@@H](C)N3CC(C)(C)F)c(F)c2)C(C)(C)C)cc1` [Example 104, (2S,4R)-1-[(2S)-2-[[2-[2-[2-[2-[3,5-Difluoro-4-[(1R,3R)-2-(2-fluoro-2-methyl-propyl)-3-methyl-1,3,4,9-tetrahydropyrido[3,4-b]indol-1-yl]phenoxy]ethoxy]ethoxy]ethoxy]acetyl]amino]-3,3-dimethyl-butanoyl]-N-[(1R)-2-(dimethylamino)-1-[4-(4-methylthiazol-5-yl)phenyl]ethyl]-4-hydroxy-pyrrolidine-2-carboxamide], in experiment [1], the DC50 stood at 54 nM. Also, in experiment [2], the IC50 was 4.6 nM.

On to `Cc1ncsc1-c1ccc(CNC(=O)[C@@H]2C[C@@H](O)CN2C(=O)[C@@H](NC(=O)COC2CCN(CCCNC(=O)/C=C/c3cc(F)c([C@@H]4c5[nH]c6ccccc6c5C[C@@H](C)N4CC(C)(C)F)c(F)c3)CC2)C(C)(C)C)cc1` [Example 65, (2S,4R)-1-((S)-2-(2-((1-(3-((E)-3-(3,5-difluoro-4-((1R,3R)-2-(2-fluoro-2-methylpropyl)-3-methyl-2,3,4,9-tetrahydro-1H-pyrido[3,4-b]indol-1-yl)phenyl)acrylamido)propyl)piperidin-4-yl)oxy)acetamido)-3,3-dimethylbutanoyl)-4-hydroxy-N-(4-(4-methylthiazol-5-yl)benzyl)pyrrolidine-2-carboxamide, Trifluoroacetic Acid], for which, in experiment [1], the DC50 was found to be 4.5 nM. The IC50 in experiment [2] turned out to be 1.1 nM.

For the compound `Cc1ncsc1-c1ccc(CNC(=O)[C@@H]2C[C@@H](O)CN2C(=O)[C@@H](NC(=O)COCCCCOCCOc2ccc([C@@H]3c4[nH]c5ccccc5c4C[C@@H](C)N3CC(F)F)nc2)C(C)(C)C)cc1` [Example 24, (2S,4R)-1-((S)-2-(2-(4-(2-((6-((1S,3R)-2-(2,2-Difluoroethyl)-3-methyl-2,3,4,9-tetrahydro-1H-pyrido[3,4-b]indol-1-yl)pyridin-3-yl)oxy)ethoxy)butoxy)acetamido)-3,3-dimethylbutanoyl)-4-hydroxy-N-(4-(4-methylthiazol-5-yl)benzyl)pyrrolidine-2-carboxamide], the DC50 in experiment [1] came out at 300 nM. For the same compound, in experiment [2], the IC50 amounted to 18 nM.
